Measurements as given in patent US20150366813A1, “LIQUID-FILLED IMMEDIATE RELEASE SOFT GELATIN CAPSULES” (Banner Life Sciences LLC, priority 2014, published 2015).
Where a name gives a salt, the structure may show the parent alone.

Test: Particle size distribution of micronized and non-micronized dabigatran etexilate mesylate
Format: physicochemical
Conditions: DEM particle diameter distribution
Description: Examples of dabigatran etexilate mesylate particle size useful for the pharmaceutical composition described herein are shown in Table 9. The distribution of dabigatran etexilate mesylate particle sizes is set forth by the diameter distribution in either micronized or non-micronized samples. The dissolution of micronized and non-micronized dabigatran etexilate mesylate particles was studied using the matrix fill corresponding to DEM A as shown in Table 8 encapsulated in a hard gelatin capsule.

Particle size D(v, 0.1) [μm]	Particle size D(v, 0.5) [μm]	Particle size D(v, 0.9) [μm]	Structure (SMILES)
1.5	4.2	10.5	CCCCCCOC(=O)N=C(N)c1ccc(NCc2nc3cc(C(=O)N(CCC(=O)OCC)c4ccccn4)ccc3n2C)cc1 [Micronized, dabigatran etexilate mesylate]
4.7	20.8	50.1	CCCCCCOC(=O)N=C(N)c1ccc(NCc2nc3cc(C(=O)N(CCC(=O)OCC)c4ccccn4)ccc3n2C)cc1 [Non-micronized, dabigatran etexilate mesylate]
